Measured values taken from US9834514B2, “Antibiotic sensitivity-restoring and photosensitive agents” (New Mexico Tech Research Foundation, priority 2015, dated 2017).

Tests used:
MRSA (ATCC No. BAA-44) [1] = test: Synergy of compound 1 with antibiotics, isobologram; type: cell-based, S. aureus; conditions: vancomycin, tetracycline, doxycycline, norfloxacin, dicloxicillin, oxacillin, penicillin G, tobramycin; FIGS. 14, 15
Source text: The synergy of two compounds with varying relative potencies can be represented using an isobologram. An isobologram plots the normalized effective concentrations of each drug on each axis, where the sum of the two concentrations equals the line of additivity. Outside the line of additivity, when the sum>1, the effect of the two drugs is considered antagonistic; inside of the line of additivity, when the sum<1, the effect of the two drugs is considered superadditive, or when the sum≦0.5, the effect of the two drugs is considered synergistic.
An illustrative example based on a single data point for each antibiotic in combination with compound 1 against MRSA (ATCC No. BAA-44) is shown in FIG. 14. A zoomed-in isobologram for the same data as shown in FIG. 14 is depicted in FIG. 15 specifically for the synergistic area.

MRSA (ATCC No. BAA-44) [2] = test: Potentiation of antibiotic activity with 10 μM compound 1 (CFU/mL); type: cell-based, S. aureus
Description: The MICs for the antibiotics in the absence of compound 1 were calculated by adjusting the cells to 5×10^5 CFU/mL with McFarland Turbidity Standard (0.5) followed by the addition of an antibiotic. The cells were then incubated at 37° C. for 18 hours on a rotary shaking incubator at 100 rpm. Finally, MTT was added to the cells to assess viability.
To assess the potentiation of antibiotic activity, the cells were adjusted to 5×10^5 CFU/mL with McFarland Turbidity Standard (0.5). Compound 1 was then added at 10 μM, and the cells were incubated at 37° C. for 45 minutes. The desired antibiotic was then added at three sub-inhibitory concentrations, and the cells were incubated at 37° C. for 18 hours on a rotary shaking incubator at 100 rpm. The samples were then diluted ten-fold, drip streaked onto a TSA plate, and incubated for 18 hours at 37° C. The resulting cell colonies were counted, and the CFU/mL values were calculated.

E. coli [3] = test: MIC against E. coli; type: cell-based; conditions: Escherichia coli
Source text: TABLE 18 details the obtained MIC values for cells treated with compound 1, light, PMB, and Polymyxin E (PME) against E. coli.

S. pyogenes ATCC 8133 = test: Resensitization to antibiotics (log reduction, TABLE 29); type: cell-based; conditions: compound 1 μM; Light (2 min)
E. coli [4] = test: Checkerboard assay (FICI); type: cell-based; conditions: with PMB
Description: (§1) Another method for determining synergy is a checkerboard assay. A checkerboard assay is performed whereby one of the test compounds is serially diluted horizontally across a plate, while the other test compound is serially diluted vertically down the plate. The perpendicular serial dilutions result in combinations of the compounds that range in concentrations from the highest to the lowest of each compound added. In the present study, the checkerboard assay method was adjusted by serially diluting one of the test compounds horizontally and adding the second drug to each well at a concentration of ¼ MIC. The 24-well microtiter plate was then incubated at 37° C. for 18-24 hours on a rotary shaker incubator at 150 rpm. After incubation, MTT reagent was added to each well at a 10% sample volume. Synergy was determined on the lowest concentration of the combined drugs, which produced no purple coloring. Calculation of synergy was determined by the Fractional Inhibitory Concentration Index (FICI): FICI=([Drug 1]Synergy/[Drug1]MIC)+([Drug 2]Synergy/[Drug 2]MIC). FICI≦0.5 is an indication of synergy.
(§2) TABLE 17 details the obtained FICI values for compound 1 in combination with varying antibiotics against MRSA, A. baumannii, and E. coli.

A. baumannii = test: Checkerboard assay (FICI); type: cell-based; conditions: with PMB
Description: as §1, §2

E. coli [5] = test: Treatment with compound 1 and PMB at fixed concentrations, with and without white light; type: cell-based
Source text: FIG. 54 is an example of the treatment of E. coli with compound 1 and PMB at fixed concentrations with and without irradiation using white light (λ).

For `Clc1ccc(/C=C/c2[nH]c3ccccc3c2/C=C/c2ccc(Cl)cc2)cc1` [Compound 1], the “synergy with antibiotics (isobologram)” value (MRSA (ATCC No. BAA-44) [1]) was “able to synergize with every tested antibiotic”, the “potentiation of tetracycline (CFU/mL)” value (MRSA (ATCC No. BAA-44) [2]; FIG. 18) was “tetracycline was more efficacious in cell killing in the presence of compound 1” and the “potentiation of doxycycline (CFU/mL)” value (MRSA (ATCC No. BAA-44) [2]; FIG. 19) was “doxycycline was more efficacious in cell killing in the presence of compound 1”. For the same molecule, the “potentiation of norfloxacin (CFU/mL)” value (MRSA (ATCC No. BAA-44) [2]; FIG. 20) was “norfloxacin was more efficacious in cell killing in the presence of compound 1”, the “potentiation of dicloxicillin (CFU/mL)” value (MRSA (ATCC No. BAA-44) [2]; FIG. 21) was “dicloxicillin was more efficacious in cell killing in the presence of compound 1” and the “potentiation of oxacillin (CFU/mL)” value (MRSA (ATCC No. BAA-44) [2]; FIG. 22) was “oxacillin was more efficacious in cell killing in the presence of compound 1”. The “potentiation of penicillin G (CFU/mL)” value (MRSA (ATCC No. BAA-44) [2]; FIG. 23) was “penicillin G was more efficacious in cell killing in the presence of compound 1”, the “potentiation of tobramycin (CFU/mL)” value (MRSA (ATCC No. BAA-44) [2]; FIG. 24) was “tobramycin was more efficacious in cell killing in the presence of compound 1” and the “potentiation of vancomycin (CFU/mL)” value (MRSA (ATCC No. BAA-44) [2]; FIG. 25) was “vancomycin was more efficacious in cell killing in the presence of compound 1”. For the same molecule, the MIC (E. coli [3]) was > 200 µg/mL, the “Log Reduction” value (S. pyogenes ATCC 8133) was 6-7 and the “FIC Index” value (E. coli [4]) was 0.2. For the same molecule, the “FIC Index” value (A. baumannii) was 0.1, the “cell killing with compound 1, PMB and white light” value (E. coli [5]; FIG. 54) was “PMB was more efficacious in cell killing when co-administered with compound 1 and light” and the “killing by combination of compound 1 and PMB (CFU)” value (E. coli [5]; compared to either agent alone, FIG. 17) was “effective at killing E. coli”.
